Source: patent US20140039008A1, “METHODS FOR THE ADMINISTRATION OF ILOPERIDONE” (VANDA PHARMACEUTICALS, INC., priority 2004, published 2014)

Tests used:
[1] = target: HERG channel (Homo sapiens, UniProt Q12809); assay: affinity for the HERG channel; type: binding
[2] = lipophilicity; type: physicochemical; conditions: compared to iloperidone
[3] = Example 1: blood concentrations of P88 and P95 after iloperidone by CYP2D6 genotype, with and without inhibitor; type: in vivo, human; parameters: unit not given here; conditions: at Tmax of P88, without inhibitor
Source text: The research leading to the present invention was designed to examine the effect of different doses of iloperidone relative to the effect of ziprasidone and quetiapine on QTc duration under carefully controlled conditions. To further evaluate the possible relationship between exposure to iloperidone and the comparators to QTc duration, reassessment after pharmacological inhibition of the principle metabolic pathways for each drug, under steady-state conditions, was also planned.
Blood samples for pharmacogenetic analysis were collected at screening. Two polymorphisms previously associated with poor metabolizing status were genotyped in the CYP2D6 locus, and 251 genotypes were collected. The individual genotypes were studied for detection of association between genotype class and concentrations of iloperidone and its metabolites P88 and P95. The functional effect of the polymorphisms was also evaluated by analyzing the effect of the addition of the CYP2D6 inhibitor paroxetine on the concentrations of the parent drug and its metabolites.
The addition of metabolic inhibitors in this study therefore allowed for an evaluation of the effect of increasing blood-concentration of iloperidone and/or its metabolites on QT duration. More specifically, this study allowed for an evaluation of the effect of iloperidone on QTc before and after the addition of the CYP2D6 inhibitor, paroxetine, as well as before and after the addition of the CYP3A4 inhibitor, ketoconazole.
128 individuals consented to the pharmacogenetic study. Blood samples were collected according to the pharmacogenetics protocol and after the consent of patients. The DNA was extracted from whole blood by Covance using the PUREGENE DNA isolation kit (D-50K).
The 128 individuals that participated were a good representation of the total sample of 165 individuals that participated in the trial. 22 of 29 total were from the iloperidone 8 mg bid group, 30 of 34 were from the iloperidone 12 mg bid group, 22 of 31 from the 24 mg qd group, 3 of 5 of the risperidone group, 28 of 33 of the ziprazidone group, and 23 of 33 of the quetiapine group.
The genotype effect of the two CYP2D6 polymorphisms on period 1 concentrations was evaluated using the following ANOVA model. Concentrations of iloperidone, P88, and P95 at Period 1, without inhibitor, at the time at which maximum blood concentration of the parent compound or metabolite was reached (Tmax) were used as the dependent variable, the genotypes of each polymorphism as classes and the treatment as a covariate. In order to adjust for treatment effects after the single dose of iloperidone, the 8 mg bid was coded as 8, the 12 mg bid as 12 and the 24 mg qd as 24.
The function of these polymorphisms on the degree of inhibition of the CYP2D6 enzyme was calculated from the ratio of concentrations of P88 and P95 in period 2, after the addition of the inhibitor of CYP2D6. The concentrations of iloperidone and/or its metabolites (e.g., P88 and P95) may be determined in period 1 and/or period 2 by any known or later-developed method or device, including titration.
In order to understand the functional significance of the two CYP2D6 polymorphisms on the activity of the enzyme, the association of the various genotypes with the relative concentrations of the metabolites P88 and P95 were examined. It is known that P88 is degraded by CYP2D6 and that CYP2D6 is involved in the synthesis of P95. The relative amounts of P88 and P95 would therefore be controlled by the activity of the CYP2D6 enzyme. The ratio of P88/P95 was calculated before inhibition in Period 1 and at the Tmax of the two metabolites, as well as the ratio of P88/P95 in Period 2 after the addition of the CYP2D6 inhibitor paroxetine. In individuals with the wild type enzyme the concentration of P88 is expected to increase in Period 2, while in the same period the concentration of P95 is expected to decline.

[4] = interaction study: addition of CYP2D6 inhibitor fluoxetine, AUC; conditions: addition of CYP2D6 inhibitor fluoxetine along with iloperidone

Sequence of HERG channel (Q12809 whole entry): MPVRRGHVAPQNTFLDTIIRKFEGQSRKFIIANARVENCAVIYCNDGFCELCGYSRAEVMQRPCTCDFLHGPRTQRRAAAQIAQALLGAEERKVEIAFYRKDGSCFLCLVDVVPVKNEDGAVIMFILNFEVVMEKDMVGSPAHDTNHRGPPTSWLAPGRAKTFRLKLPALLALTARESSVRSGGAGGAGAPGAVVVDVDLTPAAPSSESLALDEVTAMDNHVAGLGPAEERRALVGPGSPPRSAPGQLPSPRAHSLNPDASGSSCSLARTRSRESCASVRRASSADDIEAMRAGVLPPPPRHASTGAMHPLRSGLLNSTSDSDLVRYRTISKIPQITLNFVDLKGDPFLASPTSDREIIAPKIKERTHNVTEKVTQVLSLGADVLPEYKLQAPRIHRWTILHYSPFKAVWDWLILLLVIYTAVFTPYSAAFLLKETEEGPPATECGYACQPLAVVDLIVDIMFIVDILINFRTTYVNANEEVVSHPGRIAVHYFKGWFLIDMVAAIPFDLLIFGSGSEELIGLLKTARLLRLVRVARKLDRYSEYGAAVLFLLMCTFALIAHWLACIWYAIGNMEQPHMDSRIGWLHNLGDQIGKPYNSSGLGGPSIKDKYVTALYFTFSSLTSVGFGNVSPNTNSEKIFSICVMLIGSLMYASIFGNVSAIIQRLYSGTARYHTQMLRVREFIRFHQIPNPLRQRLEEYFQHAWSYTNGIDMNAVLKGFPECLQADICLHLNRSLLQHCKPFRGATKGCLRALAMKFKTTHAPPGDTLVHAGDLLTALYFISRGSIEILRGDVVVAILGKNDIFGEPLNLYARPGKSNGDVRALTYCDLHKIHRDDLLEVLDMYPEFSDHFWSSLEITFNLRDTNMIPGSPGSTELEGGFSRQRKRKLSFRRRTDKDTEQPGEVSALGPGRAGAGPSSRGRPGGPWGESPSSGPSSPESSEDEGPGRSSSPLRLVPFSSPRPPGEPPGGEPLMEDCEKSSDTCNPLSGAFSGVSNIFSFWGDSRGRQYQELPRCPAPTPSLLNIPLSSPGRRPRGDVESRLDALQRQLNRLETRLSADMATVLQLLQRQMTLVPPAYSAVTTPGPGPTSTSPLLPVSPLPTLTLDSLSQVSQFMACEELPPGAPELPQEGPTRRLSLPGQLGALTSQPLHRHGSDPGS

lipophilicity [2]	P88 concentrations in Period 1, LSMeans ([3]; CYP2D6C100T CC)	P88 concentrations in Period 1, LSMeans ([3]; CYP2D6C100T CT)	P88 concentrations in Period 1, LSMeans ([3]; CYP2D6C100T TT)	P88 concentrations in Period 1, LSMeans ([3]; CYP2D6G1846A AA)	P88 concentrations in Period 1, LSMeans ([3]; CYP2D6G1846A AG)	P88 concentrations in Period 1, LSMeans ([3]; CYP2D6G1846A GG)	increase of the area under the curve (AUC) [4] [%]	SMILES	affinity for the HERG channel [1]
less lipophilic								COc1cc(C(=O)O)ccc1OCCCN1CCC(c2noc3cc(F)ccc23)CC1 [P95]	very low affinity
	21.03	33.16	51.00	62.70	31.40	21.03	119	COc1cc(C(C)O)ccc1OCCCN1CCC(c2noc3cc(F)ccc23)CC1 (stereo not drawn) [P88]	
